Measured values as given in paper PMC4352194, “Physicochemical and Biological Properties of Oxovanadium(IV), Cobalt(II) and Nickel(II) Complexes with Oxydiacetate Anions” (Biological Trace Element Research, 2014).

Legend:
Assay type in all cases: cell-based
Bacillus subtilis [1] = experiment: Disc diffusion test; settings: B. subtilis
Experimental: The antimicrobial activity of complex compounds was assessed against Bacillus subtilis, Escherichia coli, Enterococcus faecalis, Pseudomonas aeruginosa, Staphylococcus aureus, Staphylococcus epidermidis (all strains were from the collection of the Department of Molecular Biology, University of Gdańsk). All bacteria were cultured in the Luria-Bertani (LB) broth at 310.15 K in the air with shaking. LB agar plates were prepared by the supplementation of LB broth with the 1.5 % bacteriological agar. Stock solutions of complex compounds were freshly prepared in the LB broth at the concentration of 25 mg/mL. Aliquots of 0.05 mL of bacterial culture at the optical density at 600 nm of 0.1 (inoculum 5 × 10^6 cells per plate) were spread on LB agar plates. Sterile filter paper discs (of 6 mm diameter) were impregnated with solutions of complex compounds prepared in the deionized water at the following amounts: 0.1, 0.2, 0.5 and 1.0 mg per disc and placed on agar plates. After an overnight incubation at 310.15 K, zones of bacterial growth inhibition were measured. Neomycin at the amount of 0.1 mg/disc was used as a control.

[2] = test system: Human Dermal Fibroblasts adult (HDFa) cell line; experiment: Proliferation assay (BrdU ELISA); settings: 6 day-exposure, 24-h BrdU incorporation
Experimental: The Human Dermal Fibroblasts adult (HDFa) cell line (Cascade Biologics) was used in all experiments. Unless otherwise specified, cells were grown in the Dulbecco’s modified Eagle’s medium (DMEM) supplemented with 10 % fetal bovine serum (FBS) and 1× antibiotic and antimycotic solutions (all purchased from Sigma) and incubated at 310.15 K in the humidified 5 % CO2 atmosphere. The antiproliferative activity of compounds was assessed using the Cell Proliferation ELISA, BrdU (colorimetric) kit (Roche Applied Science). Cells were seeded at a number of 10^3 cells per well of 96-well tissue culture plate and incubated overnight at 310.15 K. The growth medium was substituted with the medium supplemented with tested compounds, and after 5 days of incubation, labelling with 5-bromo-2′-deoxyuridine (BrdU) was performed for another 24 h. Following steps were performed according to the manufacturer’s protocol.

[3] = test system: Human Dermal Fibroblasts adult (HDFa) cell line; experiment: Cytoprotective activity against H2O2 oxidative damage (MTT)
Experimental: The Human Dermal Fibroblasts adult (HDFa) cell line (Cascade Biologics) was used in all experiments. Unless otherwise specified, cells were grown in the Dulbecco’s modified Eagle’s medium (DMEM) supplemented with 10 % fetal bovine serum (FBS) and 1× antibiotic and antimycotic solutions (all purchased from Sigma) and incubated at 310.15 K in the humidified 5 % CO2 atmosphere. Cells were plated at 2 × 10^3 cells per well of 96-well tissue culture plate. After an overnight incubation, cells were washed with DMEM without FBS and next treated with 1 mM hydrogen peroxide (H2O2) (Sigma) together with different concentrations of tested complex compounds or with 1 mM H2O2 alone to induce the oxidative damage to cells resulting in the necrotic death. Mixtures were prepared in the growth medium (DMEM) without FBS. Cells treated with the growth medium only were used as a control of normal viability. After 1-h incubation at 310.15 K, the medium was removed and cells were washed with the growth medium containing 10 % FBS to stop the H2O2 activity. Next, either the cell viability was assessed using the MTT solution (see previous paragraph) or additional incubation of cells in DMEM containing 10 % FBS for another 48 h was performed and then cells were tested for the viability (the MTT assay). The cytoprotective activity of complex compounds against the oxidative damage was calculated relatively to untreated control cells, not exposed to H2O2.

Pseudomonas aeruginosa = experiment: Broth dilution test (MIC, MBC); settings: P. aeruginosa, broth dilution 1–2048 μg/mL
Experimental: (§1) The antimicrobial activity of complex compounds was assessed against Bacillus subtilis, Escherichia coli, Enterococcus faecalis, Pseudomonas aeruginosa, Staphylococcus aureus, Staphylococcus epidermidis (all strains were from the collection of the Department of Molecular Biology, University of Gdańsk). All bacteria were cultured in the Luria-Bertani (LB) broth at 310.15 K in the air with shaking. LB agar plates were prepared by the supplementation of LB broth with the 1.5 % bacteriological agar. Stock solutions of complex compounds were freshly prepared in the LB broth at the concentration of 25 mg/mL. The antimicrobial activity was assessed with the broth dilution method. The LB broth supplemented with the twofold diluted amount of tested compounds (dilution range 1–2048 μg/mL) was inoculated with 10^6 cfu of bacteria cells per well of 96-well plate. Cultures were incubated at 310.15 K with shaking for 18–20 h in the air, and the bacterial growth was estimated by measuring the optical density at 600 nm with the LB broth as a background control. A minimum inhibitory concentration (MIC) was defined as the lowest concentration of the tested compound (in μg/mL) at which there was no visible growth of bacteria compared to the growth observed for the inoculated LB broth without any supplementation. […] The concentration (in μg/mL) at which no colonies were observed was defined as MBC.

Escherichia coli = experiment: Broth dilution test (MIC, MBC); settings: E. coli; for MIC: broth dilution 1–2048 μg/mL
Experimental: as §1

[4] = test system: Staphylococcus epidermidis; experiment: Broth dilution test (MIC, MBC); settings: S. epidermidis; for MIC: broth dilution 1–2048 μg/mL
Experimental: as §1

Enterococcus faecalis = experiment: Broth dilution test (MIC, MBC); settings: E. faecalis; for MIC: broth dilution 1–2048 μg/mL
Experimental: as §1

Staphylococcus aureus = experiment: Broth dilution test (MIC, MBC); settings: S. aureus; for MIC: broth dilution 1–2048 μg/mL
Experimental: as §1

Bacillus subtilis [5] = experiment: Broth dilution test (MIC, MBC); settings: B. subtilis, broth dilution 1–2048 μg/mL
Experimental: as §1

[6] = 1 mM H2O2 with complex 1 h, then additional 48-h incubation in growth medium
[7] = 1 mM H2O2 with complex, 1-h exposure

| Structure (SMILES) | Zone of growth inhibition (Bacillus subtilis [1]; 500 μg/disc) [mm] | Zone of growth inhibition (Bacillus subtilis [1]; 1000 μg/disc) [mm] | IC25 [2] [µM] | IC50 [2] [µM] | IC75 [2] [µM] | cytoprotective activity against oxidative damage [3, 6] | cytoprotective activity against oxidative damage [3, 7] | MIC (Pseudomonas aeruginosa) [mg/L] | MIC (Escherichia coli) [mg/L] | MBC [4] [mg/L] | bacteriostatic or bactericidal activity [4] | MIC [4] [mg/L] | MIC (Enterococcus faecalis) [mg/L] | MIC (Staphylococcus aureus) [mg/L] | MIC (Bacillus subtilis [5]) [mg/L] | MBC (Staphylococcus aureus) [mg/L] | bacteriostatic or bactericidal activity (Staphylococcus aureus) | other results |
| --- | --- | --- | --- | --- | --- | --- | --- | --- | --- | --- | --- | --- | --- | --- | --- | --- | --- | --- |
| O.O.O.O.O.O.O.O.O.O=C([O-])COCC(=O)[O-].O=C([O-])COCC(=O)[O-].[Ni+2].[Ni+2] [Ni(ODA), [Ni(ODA)(H2O)3]·1.5H2O] | 8 | 8 | 148.65 | 220 | >1000 | no influence on the viability of cells | no influence on the viability of cells | 1024 | 1024 | 2048 | bactericidal activity | 512 | 1024 | 1024 | 512 | – | – | IC50 ([2]; listed as Ni(II) complex): ~200 µM |
| O.O.O.O=C(O)COCC(=O)O.[Co] [Co(ODA), [Co(ODA)(H2O)2]·H2O] | 9 | 11 | 128.90 | 175 | >1000 | grow and proliferate at similar levels to untreated control cells | highest dose- and time-dependent protective effect | 256 | 512 | 2048 | bactericidal activity | 256 | 256 | 256 | 256 | 512 | bactericidal activity | IC50 ([2]; listed as Co(II) complex): ~200 µM; viability of cells ([3]; 1 mM H2O2 together with 500 μM complex, 1 h): ca. 100%; MBC (Escherichia coli): 1024 mg/L; bacteriostatic or bactericidal activity (Escherichia coli): bactericidal activity |
| O.O.O=C([O-])COCC(=O)[O-].[O]=[V+2] [VO(ODA), [VO(ODA)(H2O)2]] | – | 7 | 23.41 | 24.9 | 26.42 | induces the cell death | to some extent, exhibits the cytoprotective activity | 1024 | 2048 | 2048 | bactericidal activity | 2048 | 1024 | 1024 | 2048 | 2048 | bactericidal activity | IC50 ([2]; listed as oxovanadium(IV) complex): 25 µM; MBC (Enterococcus faecalis): 1024 mg/L; bacteriostatic or bactericidal activity (Enterococcus faecalis): bactericidal activity |
